Results taken from patent US20130260436A1, “Methods of Identifying and Characterizing Natural Product Gene Clusters” (Victoria LInk Limited, priority 2010, published 2013).

Key:
PcpS [1] = molecular target: PcpS (Pseudomonas aeruginosa, UniProt Q9I4H2); assay: BpsA coupled PPTase inhibition assay, PcpS; assay type: biochemical; settings: for IC50: 95% CI in parentheses; for Ki: Cheng-Prusoff, competitive inhibition
Sfp = Sfp (Bacillus spizizenii, UniProt G4NQW2); assay: BpsA coupled PPTase inhibition assay, Sfp; assay type: biochemical, B. subtilis subsp. spizizenii ATCC6633; settings: for IC50: IC50, Sfp, 95% CI in parentheses; for Ki: Sfp, Cheng-Prusoff, competitive inhibition
PP1183 = PP1183 (Pseudomonas putida, UniProt Q88NM4); assay: BpsA coupled PPTase inhibition assay, PP1183; assay type: biochemical, P. putida KT2440; settings: for IC50: IC50, PP1183, 95% CI in parentheses; for Ki: PP1183, Cheng-Prusoff, competitive inhibition
holo-BpsA = molecular target: T1, holo-BpsA (Streptomyces lavendulae, UniProt Q1MWN4); assay: Inhibition of indigoidine synthesis by pre-activated holo-BpsA (counter-screen); assay type: biochemical, S. lavendulae ATCC 11924; settings: pre-activated holo-BpsA in isolation
T1 construct: 6His; made in house; host or cells: E. coli
T1 sequence (Q1MWN4 1-1282): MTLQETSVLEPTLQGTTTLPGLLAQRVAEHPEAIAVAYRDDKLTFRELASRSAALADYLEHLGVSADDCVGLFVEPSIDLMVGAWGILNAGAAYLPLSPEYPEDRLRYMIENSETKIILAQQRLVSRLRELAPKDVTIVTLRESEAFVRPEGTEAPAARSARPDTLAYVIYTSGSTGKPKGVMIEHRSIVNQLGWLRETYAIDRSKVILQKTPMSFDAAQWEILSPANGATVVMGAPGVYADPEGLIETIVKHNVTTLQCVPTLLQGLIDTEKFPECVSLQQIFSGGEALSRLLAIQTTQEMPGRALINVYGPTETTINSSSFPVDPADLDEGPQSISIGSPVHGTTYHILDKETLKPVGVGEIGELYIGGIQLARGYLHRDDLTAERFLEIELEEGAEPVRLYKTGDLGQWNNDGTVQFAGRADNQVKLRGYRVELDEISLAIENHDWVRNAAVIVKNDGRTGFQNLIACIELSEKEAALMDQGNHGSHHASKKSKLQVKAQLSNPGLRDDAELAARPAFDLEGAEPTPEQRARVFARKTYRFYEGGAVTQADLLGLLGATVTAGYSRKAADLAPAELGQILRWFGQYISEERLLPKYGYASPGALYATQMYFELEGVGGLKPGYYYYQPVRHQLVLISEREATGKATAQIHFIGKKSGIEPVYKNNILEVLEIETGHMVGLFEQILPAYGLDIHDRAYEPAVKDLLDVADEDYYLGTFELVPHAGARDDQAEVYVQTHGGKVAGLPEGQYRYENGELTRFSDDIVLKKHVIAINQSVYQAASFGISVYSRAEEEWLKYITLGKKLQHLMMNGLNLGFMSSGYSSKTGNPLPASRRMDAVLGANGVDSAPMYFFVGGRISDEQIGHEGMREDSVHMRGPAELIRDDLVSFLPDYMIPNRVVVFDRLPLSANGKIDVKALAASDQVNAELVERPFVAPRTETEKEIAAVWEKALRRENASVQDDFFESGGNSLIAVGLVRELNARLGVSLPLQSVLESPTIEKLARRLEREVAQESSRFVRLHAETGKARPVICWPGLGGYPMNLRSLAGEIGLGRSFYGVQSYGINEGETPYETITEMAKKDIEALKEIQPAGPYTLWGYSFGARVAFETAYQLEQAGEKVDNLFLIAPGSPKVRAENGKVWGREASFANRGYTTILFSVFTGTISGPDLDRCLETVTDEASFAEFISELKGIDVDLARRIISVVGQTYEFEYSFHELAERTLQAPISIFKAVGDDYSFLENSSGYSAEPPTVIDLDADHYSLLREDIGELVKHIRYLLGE

PcpS [2] = assay: Screening of the LOPAC1280 library for PcpS inhibitors with the BpsA coupled assay; assay type: biochemical, P. aeruginosa; settings: compound approximately 18 μM; 0.18 μM PcpS
Procedure: 1.8 μL of each compound from a Lopac^1280 library plate was added to 30 μL of 10% DMSO in MQ using a CyBio CyBi-well, giving a final compound concentration of approximately 18 μM. Next 50 μl, of a master mix containing 5 μM Co-enzyme A, 1.66 μM BpsA, 20 mM MgCl2, 5 mM ATP, 8 mM L-Gln, 100 mM Tris-HCl pH 7.8 and MQ was added. To initiate the reaction 20 μL of PcpS at a final reaction concentration of 0.18 μM and MQ was added rapidly, using an automatic dispensing Pipette. The plate was then shaken for 10 seconds at 1000 rpm to mix the compounds. The plate was then read 25 times to measure the Absorbance at 590 nm (with 20 second intervals between each read) in an EnSpire plate reader at 25° C. […] Negative and positive controls were established in wells in these columns, and used to monitor the reaction. […] Both control reactions were run in triplicate.
1.8 μL of each compound from a Lopac^1280 library plate was added to 304 of 10% DMSO in MQ using a CyBio CyBi-well, giving a final compound concentration of approximately 18 μM. Next 50 μL of a master mix containing 5 μM Co-enzyme A, 1.66 μM BpsA, 20 mM MgCl2, 5 mM ATP, 8 mM L-Gln, 100 mM Tris-HCl pH 7.8 and MQ was added. […] The plate was then read 25 times to measure the Absorbance at 590 nm (with 20 second intervals between each read) in an EnSpire plate reader at 25° C. […]

all three PPTases = assay: BpsA coupled PPTase inhibition assay, summary over all three PPTases
Procedure: Each of the three PPTases was evaluated for inhibition across a two-fold serial dilution series of 6-NOBP (250-0.12 μM) with CoA concentration fixed at either 10 or 2.5 μM. […] Derived Ki values were most consistent between CoA concentrations when the Cheng-Prusoff equation for competitive inhibition was employed.
Triplicate two fold serial dilution series (250-0.12 μM) of the previously identified PPTase inhibitor 6-NOBP were established in a final volume of 50 ml 10% DMSO in a 96 wp. 100 μL of reaction mix (20 or 5 μM CoA, 5 mM ATP, 20 mM MgCl2, 8 mM L-Gln and 100 mM Tris-CL, 1.66 μM apo-BpsA, pH 7.8) was then added to each well. Reactions were then initiated by addition of 50 μL 0.32-1.0 μM PPTase in water to each well followed by mixing at 1000 rpm for 10 s. A590 values were then recorded and PPTase velocities determined as previously described.

[3] = Effect of pH on indigoidine stability (loss of colouration, A590); assay type: physicochemical; settings: culture supernatant, 50 mM sodium phosphate buffer, 20 min
Procedure: (A) Diluted sterile supernatant from an indigoidine producing culture was incubated for 20 min with 50 mM sodium phosphate buffer at each of the indicated pH values in triplicate. Loss of colouration was then assessed by measuring A590. Error bars are presented as +/− one standard deviation. (B) Indigoidine reactions differing only in the pH of the buffer used are shown.
The supernatant from BpsA-expressing cultures reached a much higher A590 (˜1.2) than the maximum achieved from any in vitro experiments (˜0.3) (not shown). Without wishing to be bound by theory, the inventors hypothesized that that since indigoidine produced and exported from a cell in vivo was effectively removed from exposure to intracellular enzymes, the loss of in vitro product may have been due to enzymatic degradation in the in vitro assay preparations. This could be due to BpsA itself, the activating PPTase or an undetected contaminating species. To test this possibility, filter sterilized culture supernatant containing indigoidine was incubated with various concentrations of each enzyme preparation used for in vitro assays. No difference in pigment levels resulted from this treatment. It was concluded that the loss of pigmentation seen in vitro was not enzyme catalysed. […] A more detailed analysis of the relationship between pH and pigment stability was then conducted. […]

E. coli = assay type: cell-based; settings: high levels of active BpsA, excess L-Gln, extended time
From the text: In one embodiment, activation of the NRPS BpsA then produces the dye, indigoidine. […] Due to this toxicity, E. coli cells expressing high levels of active BpsA in the presence of excess L-Gln for an extended period of time are not viable. Toxicity may be avoided by plating an E. coli reporter strain comprising a CNA expression construct on a selection medium lacking an inducer of BpsA expression. In one embodiment the inducer is IPTG.
We constructed plasmids that allowed IPTG regulated co-expression of a candidate PPTase and BpsA in E. coli BL21(DE3). To enable IPTG regulated co-expression the BpsA gene of S. lavendulae ATCC 11924 was cloned into pCDFDUET-1 (Novagen) and three candidate PPTases into the (origin of replication compatible) vector pET28a(+). […] In contrast, if IPTG was absent from the medium viable co-transformed cells were recovered with good efficiency (not shown). […] In order to circumvent this problem we employed auto-induction agar plates, prepared by addition of 1.5% agar to Studier ZYP-5052 auto-induction medium (Studier 2005). Use of auto-induction agar plates allowed for both rapid growth and efficient induction of pigment production following extended incubation at room temperature.
Initial trials were run using E. coli harbouring a P. putida PPTase expression plasmid. […]

[4] = Kuhn et al, 1965; cited from earlier work
PcpS [5] = assay: Qualitative assessment of PcpS inhibition relative to 6-NOBP; assay type: biochemical, P. aeruginosa; settings: each inhibitor 20 μM; 0.18 μM PcpS
Procedure: Duplicate wells with different inhibitors added. The No PcpS wells have ddH2O added instead of PcpS. The BpsA only wells have DMSO added instead of an inhibitor. The 6-NOBP wells have had 6-NOBP added at a final concentration of 20 μM. The Bay 11-7085 wells have had Bay 11-7085 added to a final concentration of 20 μM.
Bay 11-7085 was then serially diluted from 20 μM to 0.625 μM across the wells. The reaction was initiated by the addition of PcpS to a final concentration of 0.18 μM and indigoidine production was then monitored at 590 nm. Each concentration was tested in triplicate and the average of the three wells was taken to calculate the maximum velocity. The maximum velocity in each well was expressed as a percentage of the maximum velocity in the wells where no Bay11-7085 was present. For qualitative assessment of Bay11-7085 mediated inhibition of PcpS relative to 6-NOBP, duplicate wells were established with either 20 μM of each inhibitor or with DMSO added instead of an inhibitor (positive control). For a negative control, ddH2O was added instead of PcpS. Reactions were initiated by addition of 20 μL of PcpS at a final reaction concentration of 0.18 μM (or H2O for the negative control) using an automatic dispensing Pipette. The plate was then shaken for 10 seconds at 1000 rpm to mix the compounds, and incubated on the benchtop until the positive control wells had gone dark blue.

Chain of PcpS (Pseudomonas aeruginosa, UniProt Q9I4H2) (Q9I4H2 entry or part of it): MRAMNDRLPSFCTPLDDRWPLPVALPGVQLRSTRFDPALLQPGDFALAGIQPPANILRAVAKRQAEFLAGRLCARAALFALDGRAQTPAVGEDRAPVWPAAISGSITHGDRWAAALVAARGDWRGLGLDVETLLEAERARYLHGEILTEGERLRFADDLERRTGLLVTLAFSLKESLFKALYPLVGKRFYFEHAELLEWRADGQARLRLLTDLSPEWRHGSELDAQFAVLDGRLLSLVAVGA
Chain of PP1183 (Q88NM4 entry or part of it): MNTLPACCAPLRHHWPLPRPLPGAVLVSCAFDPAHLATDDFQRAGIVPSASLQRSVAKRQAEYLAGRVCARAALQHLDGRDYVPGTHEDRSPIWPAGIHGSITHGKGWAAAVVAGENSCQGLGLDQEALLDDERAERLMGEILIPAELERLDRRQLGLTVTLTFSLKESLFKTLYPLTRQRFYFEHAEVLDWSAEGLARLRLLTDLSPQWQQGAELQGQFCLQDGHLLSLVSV
Chain of Sfp (G4NQW2 entry or part of it): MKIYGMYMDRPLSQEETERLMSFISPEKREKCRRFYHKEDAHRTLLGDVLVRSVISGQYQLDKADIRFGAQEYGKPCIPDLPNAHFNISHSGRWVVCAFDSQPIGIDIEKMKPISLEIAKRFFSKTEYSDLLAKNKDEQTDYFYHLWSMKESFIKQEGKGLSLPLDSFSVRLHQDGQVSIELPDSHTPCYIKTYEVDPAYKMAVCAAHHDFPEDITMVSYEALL

## O=Nc1ccc2oc(=O)ccc2c1 [6-NOBP]
PcpS [1]; 1.25 μM CoA
  IC50: 4.05 µM
  Ki: 3.1 µM
PcpS [1]; 5 μM CoA
  IC50: 10.8 µM
  Ki: 4.7 µM
Sfp; 1.25 μM CoA
  IC50: 2.11 µM
  Ki: 0.7 µM
Sfp; 5 μM CoA
  IC50: 9.06 µM
  Ki: 1 µM
PP1183; 1.25 μM CoA
  IC50: 3.7 µM
  Ki: 3.3 µM
PP1183; 5 μM CoA
  IC50: 9.81 µM
  Ki: 6.8 µM
holo-BpsA
  IC50: 29.2 µM
PcpS [2]
  Outcome in high throughput screen for PcpS inhibitors: weak PcpS inhibitor
All three PPTases; read-out: IC50 values, range over the three PPTases, CoA concentration set at 5 μM
  IC50: 9.1 to 10.8 µM
All three PPTases; read-out: K, values, range over the three PPTases, converted from IC50 with Km of each PPTase
  Ki: 0.5 to 7.5 µM

## indigoidine
[3]
  Pigment stability versus pH: decolouration occurred to a greater extent at higher pH
E. coli
  Toxicity to E. coli: toxic to E. coli over time
[4]
  Pigment stability versus pH (previous observations): unstable at alkaline pH

## CC(C)(C)c1ccc(S(=O)(=O)/C=C/C#N)cc1 [Bay11-7085]
PcpS [5]
  Qualitative inhibition of PcpS relative to 6-NOBP: clearly a stronger inhibitor of PcpS than 6-NOBP
